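Results reflect a 48-hour exposure of cells in 96-well plates to compound at five concentrations. GI50 = concentration required for 50% inhibition of growth. TGI: total growth inhibition.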
What was measured:
Experiment in all cases: NCI tumour cell line growth inhibition, 48 h
[1] = test system: SK-OV-3 ovarian
[2] = test system: KM12 colon
[3] = test system: SF-539 CNS
[4] = test system: NCI-H226 lung
[5] = test system: HCT-15 colon
[6] = test system: SN12C renal
[7] = test system: 786-0 renal
[8] = test system: OVCAR-8 ovarian
[9] = test system: SNB-19 CNS
[10] = test system: PC-3 prostate
[11] = test system: HS 578T breast
[12] = test system: EKVX NSCLC
[13] = test system: M14 melanoma
[14] = test system: HCC-2998 colon
[15] = test system: OVCAR-4 ovarian
[16] = test system: UACC-62 melanoma
[17] = test system: CCRF-CEM leukemia
[18] = test system: RXF 393 renal
[19] = test system: MDA-MB-231 breast
[20] = test system: MCF7 breast
[21] = test system: HCT-116 colon
[22] = test system: OVCAR-5 ovarian
[23] = test system: SK-MEL-2 melanoma
[24] = test system: NCI-H23 lung
[25] = test system: RPMI-8226 leukemia
[26] = test system: K-562 leukemia
[27] = test system: A549 NSCLC
[28] = test system: HOP-92 NSCLC
[29] = test system: HL-60(TB) leukemia
[30] = test system: SK-MEL-5 melanoma
[31] = test system: T-47D breast
[32] = test system: MOLT-4 leukemia
[33] = test system: SNB-75 CNS
[34] = test system: A498 renal
[35] = test system: MDA-MB-435
[36] = test system: SR leukemia
[37] = test system: SF-295 CNS
[38] = test system: ACHN renal
[39] = test system: UACC-257 melanoma
[40] = test system: MALME-3M melanoma
[41] = test system: NCI-H460 lung
[42] = test system: IGROV1 ovarian
[43] = test system: SK-MEL-28 melanoma
[44] = test system: LOX IMVI melanoma
[45] = test system: HT29 colon
[46] = test system: TK-10 renal
[47] = test system: CAKI-1 renal
[48] = test system: NCI-H522 lung
[49] = test system: U251 CNS
[50] = test system: OVCAR-3 ovarian
[51] = test system: SF-268 CNS
[52] = test system: DU-145 prostate
[53] = test system: NCI/ADR-RES ovarian
[54] = test system: BT-549 breast
[55] = test system: UO-31 renal
[56] = test system: COLO 205 colon
[57] = test system: SW-620 colon
[58] = test system: HOP-62 NSCLC

Compound: COc1cccc(/C=N/Nc2ncnc3c2cnn3-c2cccc(OC)c2)c1
- GI50 [1]: > 25 µM
- TGI [1]: > 25 µM
- GI50 [2]: > 25 µM
- TGI [2]: > 25 µM
- GI50 [3]: > 25 µM
- TGI [3]: > 25 µM
- GI50 [4]: > 25 µM
- TGI [4]: > 25 µM
- GI50 [5]: > 25 µM
- TGI [5]: > 25 µM
- GI50 [6]: > 25 µM
- TGI [6]: > 25 µM
- GI50 [7]: > 25 µM
- TGI [7]: > 25 µM
- GI50 [8]: > 25 µM
- TGI [8]: > 25 µM
- GI50 [9]: > 25 µM
- TGI [9]: > 25 µM
- GI50 [10]: > 25 µM
- TGI [10]: > 25 µM
- GI50 [11]: > 10.6 µM
- TGI [11]: > 25 µM
- GI50 [12]: > 25 µM
- TGI [12]: > 25 µM
- GI50 [13]: > 25 µM
- TGI [13]: > 25 µM
- GI50 [14]: > 25 µM
- TGI [14]: > 25 µM
- GI50 [15]: > 25 µM
- TGI [15]: > 25 µM
- GI50 [16]: > 25 µM
- TGI [16]: > 25 µM
- GI50 [17]: > 25 µM
- TGI [17]: > 25 µM
- GI50 [18]: > 25 µM
- TGI [18]: > 25 µM
- GI50 [19]: > 25 µM
- TGI [19]: > 25 µM
- GI50 [20]: > 25 µM
- TGI [20]: > 25 µM
- GI50 [21]: > 25 µM
- TGI [21]: > 25 µM
- GI50 [22]: > 25 µM
- TGI [22]: > 25 µM
- GI50 [23]: > 25 µM
- TGI [23]: > 25 µM
- GI50 [24]: > 25 µM
- TGI [24]: > 25 µM
- GI50 [25]: > 25 µM
- TGI [25]: > 25 µM
- GI50 [26]: > 25 µM
- TGI [26]: > 25 µM
- GI50 [27]: > 25 µM
- TGI [27]: > 25 µM
- GI50 [28]: > 25 µM
- TGI [28]: > 25 µM
- GI50 [29]: > 25 µM
- TGI [29]: > 25 µM
- GI50 [30]: > 25 µM
- TGI [30]: > 25 µM
- GI50 [31]: > 25 µM
- TGI [31]: > 25 µM
- GI50 [32]: > 25 µM
- TGI [32]: > 25 µM
- GI50 [33]: > 25 µM
- TGI [33]: > 25 µM
- GI50 [34]: > 25 µM
- TGI [34]: > 25 µM
- GI50 [35]: > 25 µM
- TGI [35]: > 25 µM
- GI50 [36]: > 25 µM
- TGI [36]: > 25 µM
- GI50 [37]: > 25 µM
- TGI [37]: > 25 µM
- GI50 [38]: > 25 µM
- TGI [38]: > 25 µM
- GI50 [39]: > 25 µM
- TGI [39]: > 25 µM
- GI50 [40]: > 25 µM
- TGI [40]: > 25 µM
- GI50 [41]: > 25 µM
- TGI [41]: > 25 µM
- GI50 [42]: > 25 µM
- TGI [42]: > 25 µM
- GI50 [43]: > 25 µM
- TGI [43]: > 25 µM
- GI50 [44]: > 25 µM
- TGI [44]: > 25 µM
- GI50 [45]: > 25 µM
- TGI [45]: > 25 µM
- GI50 [46]: > 25 µM
- TGI [46]: > 25 µM
- GI50 [47]: > 25 µM
- TGI [47]: > 25 µM
- GI50 [48]: > 25 µM
- TGI [48]: > 25 µM
- GI50 [49]: > 25 µM
- TGI [49]: > 25 µM
- GI50 [50]: > 25 µM
- TGI [50]: > 25 µM
- GI50 [51]: > 25 µM
- TGI [51]: > 25 µM
- GI50 [52]: > 25 µM
- TGI [52]: > 25 µM
- GI50 [53]: > 25 µM
- TGI [53]: > 25 µM
- GI50 [54]: > 25 µM
- TGI [54]: > 25 µM
- GI50 [55]: > 25 µM
- TGI [55]: > 25 µM
- GI50 [56]: > 25 µM
- TGI [56]: > 25 µM
- GI50 [57]: > 25 µM
- TGI [57]: > 25 µM
- GI50 [58]: > 25 µM
- TGI [58]: > 25 µM

Compound: COc1ccc(/C=N/C2=C(C#N)C(c3ccccc3)c3c(ccc4ccccc34)O2)cc1 (configuration not stated)
- GI50 [1]: 4.95 µM
- TGI [1]: > 100 µM
- GI50 [2]: 1.16 µM
- TGI [2]: 35.4 µM
- GI50 [3]: 1.65 µM
- TGI [3]: 10.4 µM
- GI50 [4]: 2.17 µM
- TGI [4]: 54.8 µM
- GI50 [5]: 0.564 µM
- TGI [5]: 29 µM
- GI50 [6]: 4.23 µM
- TGI [6]: 26.2 µM
- GI50 [7]: 4.48 µM
- TGI [7]: 38.7 µM
- GI50 [8]: 4.07 µM
- TGI [8]: > 100 µM
- GI50 [9]: 2.06 µM
- TGI [9]: 56.2 µM
- GI50 [10]: 1.22 µM
- TGI [10]: 18.8 µM
- GI50 [11]: 2.15 µM
- TGI [11]: 23.8 µM
- GI50 [12]: 5.02 µM
- TGI [12]: > 100 µM
- GI50 [13]: 0.459 µM
- TGI [13]: 9.66 µM
- GI50 [14]: 3.81 µM
- TGI [14]: 31.5 µM
- GI50 [15]: 8.75 µM
- TGI [15]: > 100 µM
- GI50 [16]: 0.711 µM
- TGI [16]: > 100 µM
- GI50 [17]: 0.751 µM
- TGI [17]: > 100 µM
- GI50 [18]: 1.49 µM
- TGI [18]: 7.19 µM
- GI50 [19]: 2.5 µM
- TGI [19]: 22.8 µM
- GI50 [20]: 0.586 µM
- TGI [20]: 24.5 µM
- GI50 [21]: 0.516 µM
- TGI [21]: 19.2 µM
- GI50 [22]: 4.53 µM
- TGI [22]: 37.7 µM
- GI50 [23]: 3.97 µM
- TGI [23]: > 100 µM
- GI50 [24]: 3.41 µM
- TGI [24]: > 100 µM
- GI50 [25]: 2.66 µM
- TGI [25]: 35.3 µM
- GI50 [26]: 0.37 µM
- TGI [26]: > 100 µM
- GI50 [27]: 1.99 µM
- TGI [27]: > 100 µM
- GI50 [28]: 1.16 µM
- TGI [28]: 18.2 µM
- GI50 [29]: 0.649 µM
- TGI [29]: 6 µM
- GI50 [30]: 1.74 µM
- TGI [30]: 18.2 µM
- GI50 [31]: 2.41 µM
- TGI [31]: > 100 µM
- GI50 [32]: 1.75 µM
- TGI [32]: > 100 µM
- GI50 [33]: 0.466 µM
- TGI [33]: 4.01 µM
- GI50 [34]: 0.594 µM
- TGI [34]: 6.18 µM
- GI50 [35]: 0.273 µM
- TGI [35]: 0.834 µM
- GI50 [36]: 0.713 µM
- TGI [36]: > 100 µM
- GI50 [37]: 0.482 µM
- TGI [37]: 11.8 µM
- GI50 [38]: 4.09 µM
- TGI [38]: 54.4 µM
- GI50 [39]: 23.4 µM
- TGI [39]: > 100 µM
- GI50 [40]: 0.649 µM
- TGI [40]: 40.4 µM
- GI50 [41]: 1.37 µM
- TGI [41]: 47.1 µM
- GI50 [42]: 0.57 µM
- TGI [42]: 39.3 µM
- GI50 [43]: 7.14 µM
- TGI [43]: 59.8 µM
- GI50 [44]: 2.01 µM
- TGI [44]: 22.8 µM
- GI50 [45]: 0.702 µM
- TGI [45]: 15.3 µM
- GI50 [46]: 19.1 µM
- TGI [46]: > 100 µM
- GI50 [47]: 0.457 µM
- TGI [47]: 20.4 µM
- GI50 [48]: 0.388 µM
- TGI [48]: 37.6 µM
- GI50 [49]: 1.87 µM
- TGI [49]: 21.1 µM
- GI50 [50]: 0.464 µM
- TGI [50]: 10.2 µM
- GI50 [51]: 2.85 µM
- TGI [51]: 65.3 µM
- GI50 [52]: 3.26 µM
- TGI [52]: 18.6 µM
- GI50 [53]: 0.916 µM
- TGI [53]: > 100 µM
- GI50 [54]: 1.17 µM
- TGI [54]: 20.9 µM
- GI50 [55]: 1.09 µM
- TGI [55]: 37.7 µM
- GI50 [56]: 2.36 µM
- TGI [56]: 21.2 µM
- GI50 [57]: 0.732 µM
- TGI [57]: > 100 µM
- GI50 [58]: 1.77 µM
- TGI [58]: 60.1 µM

Source: PubChem BioAssay (NCI)
